Measured values from ChEMBL document CHEMBL1146261, “Design of potent inhibitors of human beta-secretase. Part 2” (Bioorg Med Chem Lett, 2007).

Legend:
Beta-secretase 1 [1] = target: T1, Beta-secretase 1 (Homo sapiens, UniProt P56817); experiment: Inhibition of BACE expressed in HEK293 cells; assay type: cell-based
Beta-secretase 1 [2] = target: T1, Beta-secretase 1; experiment: Inhibition of BACE

T1 sequence (P56817 whole entry): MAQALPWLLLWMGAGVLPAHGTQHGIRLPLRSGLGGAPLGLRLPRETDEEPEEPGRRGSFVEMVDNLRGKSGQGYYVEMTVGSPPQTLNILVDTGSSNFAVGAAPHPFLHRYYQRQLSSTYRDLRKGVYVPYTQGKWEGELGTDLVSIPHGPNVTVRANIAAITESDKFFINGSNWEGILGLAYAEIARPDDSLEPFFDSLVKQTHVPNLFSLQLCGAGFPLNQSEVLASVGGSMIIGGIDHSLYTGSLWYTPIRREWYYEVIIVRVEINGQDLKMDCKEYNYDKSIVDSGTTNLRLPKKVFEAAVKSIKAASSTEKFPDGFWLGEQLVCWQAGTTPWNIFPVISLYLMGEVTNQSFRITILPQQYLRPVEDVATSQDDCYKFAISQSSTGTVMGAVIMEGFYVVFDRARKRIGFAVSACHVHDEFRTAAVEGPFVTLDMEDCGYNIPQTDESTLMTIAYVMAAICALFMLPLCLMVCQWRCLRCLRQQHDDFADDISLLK

Compound	EC50 (Beta-secretase 1 [1]) [nM]	IC50 (Beta-secretase 1 [2]) [nM]
CCCCS(=O)(=O)C[C@@H](NC(=O)c1cccnc1)C(=O)N[C@@H](Cc1cc(F)cc(F)c1)[C@H](O)CNCc1cccc(CC)c1	1	2
CCCC(CCC)S(=O)(=O)C[C@@H](NC(=O)c1cccnc1)C(=O)N[C@@H](Cc1cc(F)cc(F)c1)[C@H](O)CNCc1cccc(CC)c1	1	1
CCCCS(=O)(=O)C[C@@H](NC(=O)C1CC1)C(=O)N[C@@H](Cc1cc(F)cc(F)c1)[C@H](O)CNCc1cccc(CC)c1	4	10
CCCCS(=O)(=O)C[C@@H](NC(=O)c1cnccn1)C(=O)N[C@@H](Cc1cc(F)cc(F)c1)[C@H](O)CNCc1cccc(CC)c1	0.2	4
CCCC(CCC)S(=O)(=O)C[C@@H](NC(=O)c1ccc(C)cc1)C(=O)N[C@@H](Cc1cc(F)cc(F)c1)[C@H](O)CNCc1cccc(CC)c1	19	4
CCCC(CCC)S(=O)(=O)C[C@@H](NC(=O)c1ccc(C(F)(F)F)cc1)C(=O)N[C@@H](Cc1cc(F)cc(F)c1)[C@H](O)CNCc1cccc(CC)c1	76	53
CCCCS(=O)(=O)C[C@@H](NC(=O)OCc1ccncc1)C(=O)N[C@@H](Cc1cc(F)cc(F)c1)[C@H](O)CNCc1cccc(CC)c1	2	11
CCCC(CCC)S(=O)(=O)C[C@@H](NC(=O)c1cccc(Cl)c1)C(=O)N[C@@H](Cc1cc(F)cc(F)c1)[C@H](O)CNCc1cccc(CC)c1	48	5
CCCCS(=O)(=O)C[C@@H](NC(=O)COC)C(=O)N[C@@H](Cc1cc(F)cc(F)c1)[C@H](O)CNCc1cccc(CC)c1	4	22
CCCC(CCC)S(=O)(=O)C[C@@H](NC(=O)c1ccccc1C)C(=O)N[C@@H](Cc1cc(F)cc(F)c1)[C@H](O)CNCc1cccc(CC)c1	59	15
CCCCS(=O)(=O)C[C@@H](NC(=O)c1cnccc1O)C(=O)N[C@@H](Cc1cc(F)cc(F)c1)[C@H](O)CNCc1cccc(CC)c1	24	5
CCCCS(=O)(=O)C[C@@H](NC(C)=O)C(=O)N[C@@H](Cc1cc(F)cc(F)c1)[C@H](O)CNCc1cccc(CC)c1	6	13
CCCCS(=O)(=O)C[C@@H](NC(=O)OC)C(=O)N[C@@H](Cc1cc(F)cc(F)c1)[C@H](O)CNCc1cccc(CC)c1	2	4
CCCCS(=O)(=O)C[C@@H](NC(=O)OCc1cccnc1)C(=O)N[C@@H](Cc1cc(F)cc(F)c1)[C@H](O)CNCc1cccc(CC)c1	0.6	10
CCCC(CCC)S(=O)(=O)C[C@@H](NC(=O)OCc1cccnc1)C(=O)N[C@@H](Cc1cc(F)cc(F)c1)[C@H](O)CNCc1cccc(CC)c1	5	4
CCCCS(=O)(=O)CC(NC(=O)OCCC#N)C(=O)N[C@@H](Cc1cc(F)cc(F)c1)[C@H](O)CNCc1cccc(CC)c1 (some centres undefined)	5	8
CCCCS(=O)(=O)C[C@@H](NC(=O)OCCNC(C)=O)C(=O)N[C@@H](Cc1cc(F)cc(F)c1)[C@H](O)CNCc1cccc(CC)c1	12	27
CCCCS(=O)(=O)C[C@@H](NC(=O)OCC(F)(F)F)C(=O)N[C@@H](Cc1cc(F)cc(F)c1)[C@H](O)CNCc1cccc(CC)c1		4
CCCC(CCC)S(=O)(=O)C[C@@H](NC(=O)c1ccc(OC)cc1)C(=O)N[C@@H](Cc1cc(F)cc(F)c1)[C@H](O)CNCc1cccc(CC)c1	11	2
CCCCS(=O)(=O)C[C@@H](NC(=O)c1ncc[nH]1)C(=O)N[C@@H](Cc1cc(F)cc(F)c1)[C@H](O)CNCc1cccc(CC)c1	4	4
CCCC(CCC)S(=O)(=O)C[C@@H](NC(=O)OCc1ccncc1)C(=O)N[C@@H](Cc1cc(F)cc(F)c1)[C@H](O)CNCc1cccc(CC)c1	5	3
CCCC(CCC)S(=O)(=O)C[C@@H](NC(=O)OCc1ccccc1)C(=O)N[C@@H](Cc1cc(F)cc(F)c1)[C@H](O)CNCc1cccc(CC)c1		3
CCCC(CCC)S(=O)(=O)C[C@@H](NC(=O)c1ccccc1)C(=O)N[C@@H](Cc1cc(F)cc(F)c1)[C@H](O)CNCc1cccc(CC)c1	14	495
CCCC(CCC)S(=O)(=O)C[C@@H](NC(=O)OC)C(=O)N[C@@H](Cc1cc(F)cc(F)c1)[C@H](O)CNCc1cccc(CC)c1	2	3
CCCCS(=O)(=O)C[C@@H](NC(=O)SC1CCOC1)C(=O)N[C@@H](Cc1cc(F)cc(F)c1)[C@H](O)CNCc1cccc(CC)c1 (some centres undefined)	4	15
CCCCS(=O)(=O)C[C@@H](NC(=O)c1cc(C)n[nH]1)C(=O)N[C@@H](Cc1cc(F)cc(F)c1)[C@H](O)CNCc1cccc(CC)c1	4	4
CCCCS(=O)(=O)C[C@@H](NC(=O)c1ccncc1)C(=O)N[C@@H](Cc1cc(F)cc(F)c1)[C@H](O)CNCc1cccc(CC)c1	1	5
CCCC(CCC)S(=O)(=O)C[C@@H](NC(=O)c1cccc(O)c1)C(=O)N[C@@H](Cc1cc(F)cc(F)c1)[C@H](O)CNCc1cccc(CC)c1	9	2
